Patent US10160831B2, “Astaxanthin based polymer and uses thereof” (SHENKAR COLLEGE OF ENGINEERING AND DESIGN, priority 2014, dated 2018)

Columns and labels:
S. epidermidis 1457 = experiment: Bacterial growth on coated 96 well plates, optical density over 24 h; assay type: cell-based; conditions: coated wells, 37° C., FIG. 12A
Experimental: The potential antibacterial properties of polymer based ATX samples were tested against Staphylococcus aureus MRSA252, S. aureus MSSA476 and S. epidermidis 1457. Using solvent casting method [J. Ghosh et al., Polymer, vol. 52, pp. […]], 96 well plates were coated with the following samples—ATX only, ATX+sebacic acid (SA), ATX+Hexadecanoic acid (HA) and ATX+sebacic acid+2% polyethylene glycol (PEG). Each sample coated 3 wells per row and the last row was left blank as a control.
3 ml Trypticase Soy Broth was inoculated with a colony from an overnight plate. Pre-cultures were grown at 37° C. with shaking to mid-exponential phase (2-3 h), and then used to inoculate fresh TSB to a starting OD600 of 0.01. 200 μl aliquots of this suspension were then inoculated into wells of one full row of the test plate. The plate was then incubated in a FLUOstar OPTIMA microplate reader at 37° C., and the optical density of each well measured every hour over a 24 h period. […]
Optical density was measured as absorbance at 570 nm using a FLUOstar OPTIMA microplate reader and biofilm positive defined as OD570 above 1. […] Data was analyzed using unpaired t-tests or one-way ANOVA, and the level of significance set at p<0.05. The ability of the bacteria to form a biofilm in the presence of the ATX samples was determined after culturing for 24 h using a semi-quantitative biofilm assay.

[1] = system: S. aureus and S. epidermidis isolates; experiment: Semi-quantitative biofilm assay (crystal violet, OD570) after culturing for 24 h; assay type: cell-based; conditions: 24 h culture, OD570, FIG. 12B, p≤0.005
Experimental: 3 ml Trypticase Soy Broth was inoculated with a colony from an overnight plate. Pre-cultures were grown at 37° C. with shaking to mid-exponential phase (2-3 h), and then used to inoculate fresh TSB to a starting OD600 of 0.01. 200 μl aliquots of this suspension were then inoculated into wells of one full row of the test plate. The plate was then incubated in a FLUOstar OPTIMA microplate reader at 37° C., and the optical density of each well measured every hour over a 24 h period. After 24 h the suspension in each plate was removed. The plate itself was washed three times with phosphate buffered saline, pH 7.4 (PBS), air dried and stained with 150 μl crystal violet solution. The dye bound to any attached cells was solubilized by addition of 150 μl of 95% ethanol. Optical density was measured as absorbance at 570 nm using a FLUOstar OPTIMA microplate reader and biofilm positive defined as OD570 above 1. All S. aureus and S. epidermidis isolates were tested in triplicate in three independent experiments. Each plate also consisted of negative controls (wells without bacterial inoculation). Data was analyzed using unpaired t-tests or one-way ANOVA, and the level of significance set at p<0.05. The ability of the bacteria to form a biofilm in the presence of the ATX samples was determined after culturing for 24 h using a semi-quantitative biofilm assay.

In the case of `CC1=C(/C=C/C(C)=C/C=C/C(C)=C/C=C/C=C(C)/C=C/C=C(C)/C=C/C2=C(C)C(=O)[C@@H](O)CC2(C)C)C(C)(C)C[C@H](O)C1=O` [ATX, 3,3′-dihydroxy-β,βcarotene-4,4′-dione], the “effect on growth of the bacteria (optical density)” value (S. epidermidis 1457) is reported as “significant effect on inhibiting the growth” and the “biofilm formation on coated surface vs control” value [1] is reported as “inhibited the bacteria from forming biofilm”.
